Reference: KR20130112248A, “피라졸로피리미딘 유도체 화합물, 이를 포함하는 산화질소 생성 억제용 조성물 및 뇌신경 질환 예방 및 치료용 약학적 조성물” (한국과학기술연구원, priority 2012, dated 2013)

test system: NO production in BV-2 cells [NO 생성; BV-2 세포]; assay: Nitric oxide (NO) quantification (nitrite, Griess reaction) in LPS-activated BV-2 cells; format: cell-based; conditions: 20 μM, LPS 0.2 ㎍/mL, 24 h co-treatment, nitrite by Griess at 540 nm, 1440 min

In the case of `CSc1nc(N[C@H](C)c2ccccc2)c2cnn(C(C)(C)C)c2n1` [화합물 17g, (R)-1-t-뷰틸-4-(1-페닐에틸)아미노-6-(메틸티오)피라졸로[3,4-d]피리미딘], the “NO (% of LPS)” value is reported as 42±18 % of LPS.

same assay, conditions: Mus musculus, BV-2, 24 h, 20 μM, LPS 0.2 ㎍/mL, 24 h co-treatment, nitrite by Griess at 540 nm

Compared with `CSc1nc(NC(C)c2ccc(C)cc2)c2cnn(Cc3ccccc3)c2n1` (stereo not drawn) [화합물 16za, 1-벤질-6-(메틸티오)-N-(1-p-톨릴에틸)-1H-피라졸로[3,4-d]피리미딘-4-아민], `COc1ccc([C@H](C)Nc2nc(SC)nc3c2cnn3Cc2ccccc2)cc1` [화합물 16zb, 1-벤질-N-((S)-1-(4-메톡시페닐)에틸)-6-(메틸티오)-1H-피라졸로[3,4-d]피리미딘-4-아민] is higher in activity at 20 µM: 40 ± 1.3% for the first, 49 ± 2.4% for the second.

First: COc1ccccc1CNc1nc(SC)nc2c1cnn2Cc1ccccc1 [화합물 16zc, N-(2-메톡시벤질)-1-벤질-6-(메틸티오)-1H-피라졸로[3,4-d]피리미딘-4-아민]
Second: COc1ccccc1CCn1ncc2c(NCc3ccccc3)nc(SC)nc21 [화합물 19e, 1-(2-메톡시펜에틸)-N-벤질-6-(메틸티오)-1H-피라졸로[3,4-d]피리미딘-4-아민]
The activity at 20 µM of the first is lower: 50 ± 1.1% for the first, 60 ± 5.9% for the second.

`CSc1nc(NCc2ccc(Cl)cc2)c2cnn(Cc3ccccc3)c2n1` [화합물 16zd, N-(4-클로로벤질)-1-벤질-6-(메틸티오)-1H-피라졸로[3,4-d]피리미딘-4-아민] and `CSc1nc(NCc2ccc(C)cc2)c2cnn(Cc3ccccc3)c2n1` [화합물 16ze, N-(4-메틸벤질)-1-벤질-6-(메틸티오)-1H-피라졸로[3,4-d]피리미딘-4-아민] are within error of each other in activity at 20 µM: 46 ± 1.9% for the first, 51 ± 3.4% for the second.

Going from `COc1cccc(CNc2nc(SC)nc3c2cnn3Cc2ccccc2)c1` [화합물 16zf, N-(3-메톡시벤질)-1-벤질-6-(메틸티오)-1H-피라졸로[3,4-d]피리미딘-4-아민] to `COc1cccc(CCn2ncc3c(NCc4ccccc4)nc(SC)nc32)c1` [화합물 18h, 1-(3-메톡시펜에틸)-N-벤질-6-(메틸티오)-1H-피라졸로[3,4-d]피리미딘-4-아민], the activity at 20 µM rises from 49 ± 0.6% to 56 ± 3.1%.

`CCCCNc1nc(SC)nc2c1cnn2Cc1ccccc1` [화합물 16zg, 1-벤질-N-뷰틸-6-(메틸티오)-1H-피라졸로[3,4-d]피리미딘-4-아민] and `CSc1nc(NCc2ccccn2)c2cnn(Cc3ccccc3)c2n1` [화합물 16zh, 1-벤질-6-(메틸티오)-N-((피리딘-2-일)메틸)-1H-피라졸로[3,4-d]피리미딘-4-아민] are within error of each other in activity at 20 µM: 55 ± 1.9% for the first, 53 ± 7.2% for the second.

Compared with `CSc1nc(NCc2ccccc2Cl)c2cnn(Cc3ccccc3)c2n1` [화합물 16zi, N-(2-클로로벤질)-1-벤질-6-(메틸티오)-1H-피라졸로[3,4-d]피리미딘-4-아민], `COc1ccccc1CCn1ncc2c(NCc3ccccc3Cl)nc(SC)nc21` [화합물 19h, N-(2-클로로벤질)-1-(2-메톡시펜에틸)-6-(메틸티오)-1H-피라졸로[3,4-d]피리미딘-4-아민] is lower in activity at 20 µM: 39 ± 3.1% for the first, 18 ± 1.2% for the second.

First: CSc1nc(NCc2ccccc2)c2cnn(C(C)(C)C)c2n1 [화합물 17a, 1-t-뷰틸-4-벤질아미노-6-(메틸티오)피라졸로[3,4-d]피리미딘]
Second: CSc1nc(NCCc2ccccc2)c2cnn(C(C)(C)C)c2n1 [화합물 17h, 1-t-뷰틸-4-(2-페닐에틸)아미노-6-(메틸티오)피라졸로[3,4-d]피리미딘]
The activity at 20 µM of the first is higher: 73 ± 3% for the first, 61 ± 1% for the second.

Going from `CSc1nc(N[C@H](C)c2ccccc2)c2cnn(C(C)(C)C)c2n1` [화합물 17b, (R)-1-t-뷰틸-4-(1-페닐에틸)아미노-6-(메틸티오)피라졸로[3,4-d]피리미딘] to `COc1ccccc1CNc1nc(SC)nc2c1cnn2C(C)(C)C` [화합물 17i, N-(2-메톡시벤질)-1-t-뷰틸-6-(methylthio)-1H-피라졸로[3,4-d]피리미딘-4-아민], the activity at 20 µM falls from 61 ± 1% to 45 ± 5.9%.

Going from `CSc1nc(NCc2ccc(F)cc2)c2cnn(C(C)(C)C)c2n1` [화합물 17c, 1-t-뷰틸-4-(4-플루오로벤질)아미노-6-(메틸티오)피라졸로[3,4-d]피리미딘] to `CSc1nc(NCc2ccc(Cl)cc2)c2cnn(C(C)(C)C)c2n1` [화합물 17j, N-(4-클로로벤질)-1-t-뷰틸-6-(methylthio)-1H-피라졸로[3,4-d]피리미딘-4-아민], the activity at 20 µM falls from 59 ± 2% to 19 ± 3.9%.

`COc1ccc(CNc2nc(SC)nc3c2cnn3C(C)(C)C)cc1` [화합물 17e, 1-t-뷰틸-4-(4-메톡시벤질)아미노-6-(메틸티오)피라졸로[3,4-d]피리미딘] and `COc1cccc(CNc2nc(SC)nc3c2cnn3C(C)(C)C)c1` [화합물 17k, N-(3-메톡시벤질)-1-t-뷰틸-6-(methylthio)-1H-피라졸로[3,4-d]피리미딘-4-아민] are within error of each other in activity at 20 µM: 21 ± 27% for the first, 51 ± 5% for the second.

`C=CCNc1nc(SC)nc2c1cnn2C(C)(C)C` [화합물 17f, 1-t-뷰틸-4-알릴아미노-6-(메틸티오)피라졸로[3,4-d]피리미딘] and `CCCCNc1nc(SC)nc2c1cnn2C(C)(C)C` [화합물 17l, 1-t-뷰틸-N-뷰틸-6-(메틸티오)-1H-피라졸로[3,4-d]피리미딘-4-아민] are within error of each other in activity at 20 µM: 89 ± 8% for the first, 82 ± 9.5% for the second.

First: CSc1nc(NCc2ccccn2)c2cnn(C(C)(C)C)c2n1 [화합물 17m, 1-t-뷰틸-6-(메틸티오)-N-((피리딘-2-일)메틸)-1H-피라졸로[3,4-d]피리미딘-4-아민]
Second: CSc1nc(NCc2ccccc2Cl)c2cnn(C(C)(C)C)c2n1 [화합물 17n, N-(2-클로로벤질)-1-t-뷰틸-6-(메틸티오)-1H-피라졸로[3,4-d]피리미딘-4-아민]
The activity at 20 µM of the first is higher: 92 ± 6.6% for the first, 38 ± 2.9% for the second.

`CSc1nc(NC(C)(C)CO)c2cnn(C(C)(C)C)c2n1` [화합물 17o, 2-(1-t-뷰틸-6-(메틸티오)-1H-피라졸로[3,4-d]피리미딘-4-일아미노)-2-메틸프로판-1-올] and `C=CCNc1nc(SC)nc2c1cnn2CCc1cccc(OC)c1` [화합물 18i, 1-(3-메톡시펜에틸)-N-알릴-6-(메틸티오)-1H-피라졸로[3,4-d]피리미딘-4-아민] are within error of each other in activity at 20 µM: 73.6 ± 2.4% for the first, 78 ± 4.4% for the second.

`COc1cccc(CCn2ncc3c(NCc4ccccc4Cl)nc(SC)nc32)c1` [화합물 18a, N-(2-클로로벤질)-1-(3-메톡시펜에틸)-6-(메틸티오)-1H-피라졸로[3,4-d]피리미딘-4-아민] and `COc1cccc(CCn2ncc3c(NCc4ccccc4C)nc(SC)nc32)c1` [화합물 18c, N-(2-메틸벤질)-1-(3-메톡시펜에틸)-6-(메틸티오)-1H-피라졸로[3,4-d]피리미딘-4-아민] are within error of each other in activity at 20 µM: 43 ± 18.1% for the first, 37 ± 7.9% for the second.

`COc1cccc(CCn2ncc3c(NCc4ccccc4OC)nc(SC)nc32)c1` [화합물 18b, N-(2-메톡시벤질)-1-(3-메톡시펜에틸)-6-(메틸티오)-1H-피라졸로[3,4-d]피리미딘-4-아민] and `COc1cccc(CNc2nc(SC)nc3c2cnn3CCc2ccccc2OC)c1` [화합물 19a, 1-(2-메톡시펜에틸)-N-(3-메톡시벤질)-6-(메틸티오)-1H-피라졸로[3,4-d]피리미딘-4-아민] are within error of each other in activity at 20 µM: 37 ± 17.6% for the first, 32 ± 1.1% for the second.

`COc1cccc(CCn2ncc3c(NCc4cccc(OC)c4)nc(SC)nc32)c1` [화합물 18d, N-(3-메톡시벤질)-1-(3-메톡시펜에틸)-6-(메틸티오)-1H-피라졸로[3,4-d]피리미딘-4-아민] and `COc1ccc(CNc2nc(SC)nc3c2cnn3CCc2cccc(OC)c2)cc1` [화합물 18e, 1-(3-메톡시펜에틸)-N-(4-메톡시벤질)-6-(메틸티오)-1H-피라졸로[3,4-d]피리미딘-4-아민] are within error of each other in activity at 20 µM: 39 ± 4.8% for the first, 44 ± 1.3% for the second.

`COc1cccc(CCn2ncc3c(NCc4ccc(C)cc4)nc(SC)nc32)c1` [화합물 18f, 1-(3-메톡시펜에틸)-N-(4-메틸벤질)-6-(메틸티오)-1H-피라졸로[3,4-d]피리미딘-4-아민] and `COc1cccc(CCn2ncc3c(NCc4ccc(F)cc4)nc(SC)nc32)c1` [화합물 18g, 1-(3-메톡시펜에틸)-N-(4-플루오로벤질)-6-(메틸티오)-1H-피라졸로[3,4-d]피리미딘-4-아민] are within error of each other in activity at 20 µM: 56 ± 3.1% for the first, 58 ± 4.8% for the second.

Compared with `COc1ccc(CNc2nc(SC)nc3c2cnn3CCc2ccccc2OC)cc1` [화합물 19b, 1-(2-메톡시펜에틸)-N-(4-메톡시벤질)-6-(메틸티오)-1H-피라졸로[3,4-d]피리미딘-4-아민], `COc1ccccc1CCn1ncc2c(NCc3ccc(F)cc3)nc(SC)nc21` [화합물 19d, 1-(2-메톡시펜에틸)-N-(4-플루오로벤질)-6-(메틸티오)-1H-피라졸로[3,4-d]피리미딘-4-아민] is higher in activity at 20 µM: 27 ± 6.8% for the first, 40 ± 1.1% for the second.

Compared with `C=CCNc1nc(SC)nc2c1cnn2CCc1ccccc1OC` [화합물 19f, 1-(2-메톡시펜에틸)-N-알릴-6-(메틸티오)-1H-피라졸로[3,4-d]피리미딘-4-아민], `COc1ccccc1CCn1ncc2c(NCc3ccccc3C)nc(SC)nc21` [화합물 19g, N-(2-메톡시벤질)-1-(2-메톡시펜에틸)-6-(메틸티오)-1H-피라졸로[3,4-d]피리미딘-4-아민] is lower in activity at 20 µM: 75 ± 8.7% for the first, 27.4 ± 0.7% for the second.
